The values below come from patent US9850283B2, “Macrocyclic inhibitors of the PD-1/PD-L1 and CD80(B7-1)/PD-L1 protein/protein interactions” (BRISTOL-MYERS SQUIBB COMPANY, priority 2013, dated 2017).

The target of assay [1] is T1, LK35.2-hPD-L1 cells / PE-labeled PD-1-Ig (Homo sapiens, UniProt Q9NZQ7).
T1 construct: expressed in transfected cells; host or cells: LK35.2 mouse B cell line
The assay can be described thus: LK35.2-hPD-L1 cell binding high-content screening assay. In kind it is cell-based. As to conditions: cluster symbol; cell line of CBA not given (LK35.2-hPD-L1 or 293T-hPD-L1); read-out: CBA IC50 cluster. The method, boiled down: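 Binding of PE-conjugated human PD-1-Ig (1 nM final) to human PD-L1 stably expressed on a mouse B-cell line (LK35.2) was measured by high-content imaging after washes. Compound and labeled PD-1-Ig were co-incubated 1 h at 37 °C with cells in RPMI/10% FCS.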

In a further assay the target is T2, Human PD-L1/PD-1 (Homo sapiens, UniProt Q9NZQ7).
T2 construct: made in house; host or cells: HEK293T
Nature of the assay: HTRF PD-1-Ig/PD-L1-His binding assay (human PD-L1). As to conditions: cluster symbol; read-out: HTRF IC50 cluster. The method, boiled down:
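Soluble Fc-fused PD-1 and His-tagged PD-L1 (truncated before the transmembrane region) were combined in dPBS with 0.1% (w/v) BSA and 0.05% (v/v) Tween-20. Binding was read by HTRF using europium cryptate anti-Ig antibody (1 nM final) and APC anti-His antibody (20 nM final).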
In general terms: Time-resolved FRET reads energy transfer from a long-lived donor to a nearby acceptor.

Starred links: 1 amine or outer side, 2 acyl side, 3 side chain; linkers in the order of their positions; H or OH if unused. Positions of bridges follow the written chain, without caps; N, C: chain ends. Non-standard residues stand in square brackets, D forms with d. Residues, ends and D or L forms follow the SMILES beside them. ξ: configuration not given here. ξPro(4S-NH2) = O=C(C1C[C@H](N[*:3])CN1[*:1])[*:2]; Phe(4-CHF2) = N[C@@H](Cc1ccc(C(F)F)cc1)C(=O)O; Bta = N[C@@H](Cc1csc2ccccc12)C(=O)O; cisHyp = O=C(O)[C@@H]1C[C@H](O)CN1; ξPro(4,4-F2) = O=C(O)C1CC(F)(F)CN1; ξW = NC(Cc1c[nH]c2ccccc12)C(=O)O; ξBta = NC(Cc1csc2ccccc12)C(=O)O; NMeNle = CCCC[C@H](NC)C(=O)O; NMeA = CN[C@@H](C)C(=O)O; Orn = NCCC[C@H](N)C(=O)O; ξOrn = NCCCC(N)C(=O)O; ξP = O=C(O)C1CCCN1; Sar = CNCC(=O)O A value given as a limit tells only on which side of the number the result lay.

T1 sequence (Q9NZQ7 19-290): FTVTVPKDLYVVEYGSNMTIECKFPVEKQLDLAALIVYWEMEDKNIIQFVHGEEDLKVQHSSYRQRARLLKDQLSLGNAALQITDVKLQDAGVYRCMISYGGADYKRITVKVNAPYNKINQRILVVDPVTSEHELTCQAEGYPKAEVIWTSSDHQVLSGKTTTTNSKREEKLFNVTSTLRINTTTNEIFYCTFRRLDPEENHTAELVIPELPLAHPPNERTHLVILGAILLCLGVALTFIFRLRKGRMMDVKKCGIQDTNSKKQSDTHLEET
T2 sequence (Q9NZQ7 with tags, fused parts or gaps): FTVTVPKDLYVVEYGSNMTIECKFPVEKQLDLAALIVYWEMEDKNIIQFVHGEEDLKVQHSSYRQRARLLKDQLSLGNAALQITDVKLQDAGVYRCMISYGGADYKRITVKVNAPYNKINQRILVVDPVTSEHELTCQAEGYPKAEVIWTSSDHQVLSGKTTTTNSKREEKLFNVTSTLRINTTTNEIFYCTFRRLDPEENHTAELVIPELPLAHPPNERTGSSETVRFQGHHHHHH

With `CCCC[C@H]1C(=O)N(C)[C@@H](CCCC)C(=O)N[C@@H](CCCCN)C(=O)N[C@H](C(=O)NCC(N)=O)CSCC(=O)N[C@@H](Cc2ccc(O)cc2)C(=O)N(C)[C@@H](C)C(=O)N[C@@H](CC(N)=O)C(=O)N2CCC[C@H]2C(=O)N[C@@H](Cc2cnc[nH]2)C(=O)N[C@@H](CC(C)C)C(=O)N2CCC[C@H]2C(=O)N[C@@H](Cc2c[nH]c3ccccc23)C(=O)N[C@@H](CO)C(=O)N[C@@H](Cc2csc3ccccc23)C(=O)N1C` [Example 1041] ({CH2CO}-Y[NMeA]NPHLPWS[Bta][NMeNle][NMeNle]KCG-NH2; thioether N-14), the values for the IC50 (in assay [1]; on Human PD-L1/PD-1) were 0.158 to 4.71 nM and 6.76 to 30.3 nM, respectively.
Turning to `CCCC[C@H]1C(=O)N(C)[C@@H](CCCC)C(=O)NC(CCCN)C(=O)N[C@H](C(=O)NCC(N)=O)CSCC(=O)N[C@@H](Cc2ccc(O)cc2)C(=O)N(C)[C@@H](C)C(=O)N[C@@H](CC(N)=O)C(=O)N2CCCC2C(=O)N[C@@H](Cc2cnc[nH]2)C(=O)N[C@@H](CC(C)C)C(=O)N2CCC[C@H]2C(=O)N[C@@H](Cc2c[nH]c3ccccc23)C(=O)N[C@@H](CO)C(=O)N[C@@H](Cc2csc3ccccc23)C(=O)N1C` (stereo partly shown) [Example 1042] ({CH2CO}-Y[NMeA]N[ξP]HLPWS[Bta][NMeNle][NMeNle][ξOrn]CG-NH2; thioether N-14), the half-maximal inhibitory concentration (IC50) lay in the range of 0.158 to 4.71 nM in assay [1] and 0.385 to 6.74 nM at Human PD-L1/PD-1.
The corresponding values for `C=CCCCC[C@H]1C(=O)N(C)[C@@H](CCCCC=C)C(=O)N[C@@H](CCCNC(=N)N)C(=O)N[C@H](C(=O)NCC(N)=O)CSCC(=O)N[C@@H](Cc2ccccc2)C(=O)N(C)[C@@H](C)C(=O)N[C@@H](CC(N)=O)C(=O)N2CCC[C@H]2C(=O)N[C@@H](Cc2cnc[nH]2)C(=O)N[C@@H](CC(C)C)C(=O)N(C)CC(=O)N[C@@H](Cc2c[nH]c3ccccc23)C(=O)N[C@@H](CO)C(=O)N[C@@H](Cc2c[nH]c3ccccc23)C(=O)N1C` [Example 1043] are 4.78 to 72.9 nM and 6.76 to 30.3 nM.
`CCCC[C@H]1C(=O)N(C)[C@@H](CCCC)C(=O)N[C@@H](CCCNC(=N)N)C(=O)N[C@H](C(=O)NCC(N)=O)CSCC(=O)N[C@@H](Cc2ccc(C(F)F)cc2)C(=O)N(C)[C@@H](C)C(=O)N[C@@H](CC(N)=O)C(=O)N2CCC[C@H]2C(=O)N[C@@H](Cc2cnc[nH]2)C(=O)N[C@@H](CC(C)C)C(=O)N2CCC[C@H]2C(=O)N[C@@H](Cc2c[nH]c3ccccc23)C(=O)N[C@@H](CO)C(=O)N[C@@H](Cc2csc3ccccc23)C(=O)N1C` [Example 1044] ({CH2CO}-[Phe(4-CHF2)][NMeA]NPHLPWS[Bta][NMeNle][NMeNle]RCG-NH2; thioether N-14): the IC50 in assay [1] was greater than 74.3 nM; on Human PD-L1/PD-1 it was greater than 30.5 nM.
The corresponding values for `CCCC[C@H]1C(=O)N(C)[C@@H](CCCC)C(=O)N[C@@H](CCCNC(=N)N)C(=O)N[C@H](C(=O)NCC(N)=O)CSCC(=O)N[C@@H](Cc2ccc(O)cc2)C(=O)N(C)[C@@H](C)C(=O)N[C@@H](CC(N)=O)C(=O)N2C[C@@H](N)CC2C(=O)N[C@@H](Cc2cnc[nH]2)C(=O)N[C@@H](CC(C)C)C(=O)N2CCC[C@H]2C(=O)N[C@@H](Cc2c[nH]c3ccccc23)C(=O)N[C@@H](CO)C(=O)NC(Cc2csc3ccccc23)C(=O)N1C` (stereo partly drawn) [Example 1046] ({CH2CO}-Y[NMeA]N[ξPro(4S-NH2)]HLPWS[ξBta][NMeNle][NMeNle]RCG-NH2; thioether N-14) are 4.78 to 72.9 nM and 6.76 to 30.3 nM.
The corresponding values for `C=CCCCCC[C@H]1C(=O)N(C)[C@@H](CCCCCC=C)C(=O)N[C@@H](CCCNC(=N)N)C(=O)N[C@H](C(=O)NCC(N)=O)CSCC(=O)N[C@@H](Cc2ccccc2)C(=O)N(C)[C@@H](C)C(=O)N[C@@H](CC(N)=O)C(=O)N2CCC[C@H]2C(=O)N[C@@H](Cc2cnc[nH]2)C(=O)N[C@@H](CC(C)C)C(=O)N(C)CC(=O)N[C@@H](Cc2c[nH]c3ccccc23)C(=O)N[C@@H](CO)C(=O)N[C@@H](Cc2c[nH]c3ccccc23)C(=O)N1C` [Example 1047] are greater than 74.3 nM and greater than 30.5 nM.
For the compound `CCCC[C@H]1C(=O)N(C)[C@@H](CCCC)C(=O)N[C@@H](CCCNC(=N)N)C(=O)N[C@H](C(=O)NCC(N)=O)CSCC(=O)N[C@@H](Cc2ccc(O)cc2)C(=O)N(C)[C@@H](C)C(=O)N[C@@H](CC(N)=O)C(=O)N2CC(F)(F)CC2C(=O)N[C@@H](Cc2cnc[nH]2)C(=O)N[C@@H](CC(C)C)C(=O)N2CCC[C@H]2C(=O)NC(Cc2c[nH]c3ccccc23)C(=O)N[C@@H](CO)C(=O)N[C@@H](Cc2csc3ccccc23)C(=O)N1C` (stereo partly shown) [Example 1048] ({CH2CO}-Y[NMeA]N[ξPro(4,4-F2)]HLP[ξW]S[Bta][NMeNle][NMeNle]RCG-NH2; thioether N-14), the IC50 in assay [1] was 0.158 to 4.71 nM; at Human PD-L1/PD-1, 6.76 to 30.3 nM.
On the same counts, the results for `CCCC[C@H]1C(=O)N(C)[C@@H](CCCC)C(=O)N[C@@H](C)C(=O)N[C@H](C(=O)NCC(N)=O)CSCC(=O)N[C@@H](Cc2ccc(O)cc2)C(=O)N(C)[C@@H](C)C(=O)N[C@@H](CC(N)=O)C(=O)N2CCC[C@H]2C(=O)N[C@@H](Cc2cnc[nH]2)C(=O)N[C@@H](CC(C)C)C(=O)N2CCC[C@H]2C(=O)N[C@@H](Cc2c[nH]c3ccccc23)C(=O)N[C@@H](CO)C(=O)N[C@@H](Cc2csc3ccccc23)C(=O)N1C` [Example 1049] ({CH2CO}-Y[NMeA]NPHLPWS[Bta][NMeNle][NMeNle]ACG-NH2; thioether N-14) are 0.158 to 4.71 nM and 6.76 to 30.3 nM.
On the same counts, the results for `CCCC[C@H]1C(=O)N(C)[C@@H](CCCC)C(=O)N[C@@H](C)C(=O)N[C@H](C(=O)NCC(N)=O)CSCC(=O)N[C@@H](Cc2ccc(O)cc2)C(=O)N(C)[C@@H](C)C(=O)N[C@@H](CC(N)=O)C(=O)N2CCC[C@H]2C(=O)N[C@@H](Cc2cnc[nH]2)C(=O)N[C@@H](CC(C)C)C(=O)N2CCC[C@H]2C(=O)N[C@@H](Cc2c[nH]c3ccccc23)C(=O)N[C@@H](Cc2ccc(O)cc2)C(=O)N[C@@H](Cc2csc3ccccc23)C(=O)N1C` [Example 1050] ({CH2CO}-Y[NMeA]NPHLPWY[Bta][NMeNle][NMeNle]ACG-NH2; thioether N-14) are 4.78 to 72.9 nM and greater than 30.5 nM.
The corresponding values for `CCCC[C@H]1C(=O)N(C)[C@@H](CCCC)C(=O)N[C@@H](CCCN)C(=O)N[C@H](C(=O)NCC(N)=O)CSCC(=O)N[C@@H](Cc2ccc(O)cc2)C(=O)N(C)[C@@H](C)C(=O)N[C@@H](CC(N)=O)C(=O)N2CCC[C@H]2C(=O)N[C@@H](Cc2cnc[nH]2)C(=O)N[C@@H](CC(C)C)C(=O)N2C[C@@H](O)C[C@H]2C(=O)N[C@@H](Cc2c[nH]c3ccccc23)C(=O)N[C@@H](CO)C(=O)N[C@@H](Cc2csc3ccccc23)C(=O)N1C` [Example 1051] ({CH2CO}-Y[NMeA]NPHL[cisHyp]WS[Bta][NMeNle][NMeNle][Orn]CG-NH2; thioether N-14) are 0.158 to 4.71 nM and 6.76 to 30.3 nM.
As to `CCCC[C@H]1C(=O)N(C)[C@@H](CCCC)C(=O)N[C@@H](CCCNC(=N)N)C(=O)N[C@H](C(=O)NCC(N)=O)CSCC(=O)N[C@@H](Cc2ccc(O)cc2)C(=O)N(C)[C@@H](C)C(=O)N[C@@H](CC(N)=O)C(=O)N[C@@H](Cc2cnc[nH]2)C(=O)N2CCC[C@H]2C(=O)N[C@@H](CC(C)C)C(=O)N2CCC[C@H]2C(=O)N[C@@H](Cc2c[nH]c3ccccc23)C(=O)N[C@@H](CO)C(=O)N[C@@H](Cc2csc3ccccc23)C(=O)N1C` [Example 1052] ({CH2CO}-Y[NMeA]NHPLPWS[Bta][NMeNle][NMeNle]RCG-NH2; thioether N-14), the results for the 50% inhibitory concentration (IC50) (in assay [1]; at Human PD-L1/PD-1) were greater than 74.3 nM and greater than 30.5 nM, respectively.
Turning to `CCCC[C@H]1C(=O)N(C)[C@@H](CCCC)C(=O)N[C@@H](CCCNC(=N)N)C(=O)N[C@H](C(=O)NCC(N)=O)CSCC(=O)N[C@@H](Cc2ccccc2)C(=O)N(C)[C@@H](C)C(=O)N[C@@H](CC(N)=O)C(=O)N2CCC[C@H]2C(=O)N[C@@H](Cc2cnc[nH]2)C(=O)NCC(=O)N(C)CC(=O)N[C@@H](Cc2c[nH]c3ccccc23)C(=O)N[C@@H](CO)C(=O)N[C@@H](Cc2c[nH]c3ccccc23)C(=O)N1C` [Example 1053] ({CH2CO}-F[NMeA]NPHG[Sar]WSW[NMeNle][NMeNle]RCG-NH2; thioether N-14), the figures for the 50% inhibitory concentration (IC50) (in assay [1]; on Human PD-L1/PD-1) were greater than 74.3 nM and greater than 30.5 nM, respectively.
On to `CCCC[C@H]1C(=O)N(C)[C@@H](CCCC)C(=O)N[C@@H](CCCNC(=N)N)C(=O)N[C@H](C(=O)NCC(N)=O)CSCC(=O)N[C@@H](Cc2ccccc2)C(=O)N(C)[C@@H](C)C(=O)N[C@@H](CC(N)=O)C(=O)N2CCC[C@H]2C(=O)N[C@@H](Cc2cnc[nH]2)C(=O)N[C@@H](CCC(=O)O)C(=O)N(C)CC(=O)N[C@@H](Cc2c[nH]c3ccccc23)C(=O)N[C@@H](CO)C(=O)N[C@@H](Cc2c[nH]c3ccccc23)C(=O)N1C` [Example 1054] ({CH2CO}-F[NMeA]NPHE[Sar]WSW[NMeNle][NMeNle]RCG-NH2; thioether N-14), for which the IC50 in assay [1] was 4.78 to 72.9 nM; on Human PD-L1/PD-1, 0.385 to 6.74 nM.
On to `CCCC[C@H]1C(=O)N(C)[C@@H](CCCC)C(=O)N[C@@H](CCCN)C(=O)N[C@H](C(=O)NCC(N)=O)CSCC(=O)N[C@@H](Cc2ccccc2)C(=O)N(C)[C@@H](C)C(=O)N[C@@H](CC(N)=O)C(=O)N2CCC[C@H]2C(=O)N[C@@H](Cc2cnc[nH]2)C(=O)N[C@@H](CC(C)C)C(=O)N(C)CC(=O)N[C@@H](Cc2c[nH]c3ccccc23)C(=O)N[C@@H](CO)C(=O)N[C@@H](Cc2c[nH]c3ccccc23)C(=O)N1C` [Example 1055] ({CH2CO}-F[NMeA]NPHL[Sar]WSW[NMeNle][NMeNle][Orn]CG-NH2; thioether N-14), for which the values for the half-inhibitory concentration (IC50) (in assay [1]; on Human PD-L1/PD-1) were 4.78 to 72.9 nM and 6.76 to 30.3 nM, respectively.

In general, IC50 refers to the concentration that gives 50% inhibition.
